Measurements from the OPERA property sets (Mansouri et al. 2018).

Conditions: for log10 BCF / log10 biotransformation half-life (days): fish

Compound	boiling point [°C]	melting point [°C]	also measured
CC(C)(C)c1ccncc1	196	-41	–
CN[C@H](C)[C@@H](O)c1ccc(O)cc1 (racemic)	–	153	–
COc1c2occc2cc2ccc(=O)oc12	–	148	ready biodegradability: not readily biodegradable
COC(=O)Nc1ccc(Cl)c(Cl)c1	–	–	log10 Koc (L/kg): 2.74
O=c1cc(-c2ccccc2)oc2ccccc12	–	100	–
CC[C@H]1OC(=O)[C@H](C)[C@@H](O[C@H]2C[C@@](C)(OC)[C@@H](O)[C@H](C)O2)[C@H](C)[C@@H](O[C@@H]2O[C@H](C)C[C@H](N(C)C)[C@H]2O)[C@](C)(O)C[C@@H](C)CN(C)[C@H](C)[C@@H](O)[C@]1(C)O	–	114	–
O=C1CCc2ccccc2N1	–	164	–
O=C(O)CCc1cc(I)c(Oc2ccc(O)c(I)c2)c(I)c1	–	200	–
CC1OC(=O)C=C2C3=C(OC(C)(C)CC3)C(=O)C(O)=C21 (stereo unspecified)	–	230	–
CC(c1ccccc1)c1ccc(O)cc1 (stereo unspecified)	–	–	ready biodegradability: not readily biodegradable
Fc1cccc2ccccc12	215	-9	–
C=CCc1cc(C)ccc1O	237	–	–
Nc1c(Cl)cc([N+](=O)[O-])cc1[N+](=O)[O-]	–	–	ready biodegradability: not readily biodegradable
CC	-88.6	-183	log10 Koa: 0.42; log10 vapour pressure (mmHg): 4.5
Cc1cc(S(=O)(=O)c2ccccc2)ccc1NS(=O)(=O)C(F)(F)F	–	143	log10 Koc (L/kg): 3.08
c1ccc2nsnc2c1	203	43	–
Clc1ccc2c(Cl)ccc(Cl)c2c1	–	–	log10 Koa: 7.27
CC[C@@H](O)[C@@H]1CCCCN1	226	121	–
C=C1C(=O)O[C@@H]2[C@H]1CC[C@H](C)[C@]1(O)C=CC(=O)[C@@]21C	–	164	–
Cc1ccccc1C(=O)c1ccccc1	308	–	–
CC1(C)OC(=O)CC1CC(=O)O (stereo unspecified)	–	90	–
N=CN	–	81	–
CC(=O)CCc1ccco1	203	–	–
CC(C)CC[N+](=O)[O-]	164	97	–
COc1c(Cl)c(C)c2c(c1Cl)OC(=O)c1c(C)c(Cl)c(O)c(Cl)c1O2	–	232	–

Compound	boiling point [°C]	melting point [°C]	also measured
CCCCC(C)C(C)O (stereo unspecified)	166	–	–
FC(Cl)=C(F)Cl	21.1	-130	log10 vapour pressure (mmHg): 2.95
CCCCCCO[N+](=O)[O-]	171	–	log10 Henry constant (atm·m³/mol): -2.83; log10 vapour pressure (mmHg): 0.199
CCOc1ccc(O)cc1	246	66.5	–
O=C(O)CS(=O)(=O)O	–	85	–
O=[N+]([O-])c1ccc(F)c([N+](=O)[O-])c1	296	25.8	–
CCCC(CCC)C(C)C	159	–	–
COc1ccccc1CC#N	–	69.8	–
Cc1ccc(O)cc1	202	35.5	log10 Henry constant (atm·m³/mol): -6; log10 Koc (L/kg): 2.7; log10 vapour pressure (mmHg): -0.959; ready biodegradability: readily biodegradable
O=C(O)COc1c(F)c(F)c(F)c(F)c1F	–	109	–
O=CCc1ccccc1	195	33.5	log10 vapour pressure (mmHg): -0.407
CC(=O)Oc1cc(C(C)C)c(OCCN(C)C)cc1C	–	144	–
Nc1nccnn1	–	176	–
Cc1ccc2c(C)ccc(C(C)C)c2c1	294	–	–
Nc1cccc2nsnc12	–	68	–
O=C(O)c1cc(F)c(F)cc1F	–	100	–
CC(C)C(=O)OC(=O)C(C)C	183	-53.5	–
CC[C@@H](C(=O)O)c1ccccc1	271	47.5	–
CC(=O)Nc1ccc(S(=O)(=O)O)cc1	–	–	ready biodegradability: not readily biodegradable
O=[N+]([O-])c1ccc(Cl)cc1	242	83.5	log10 Henry constant (atm·m³/mol): -5.31; log10 vapour pressure (mmHg): -1.66; ready biodegradability: not readily biodegradable; log10 BCF: 1.3; log10 biotransformation half-life (days): -0.48
N#CCCCl	176	-51	–
COc1ccc(C(=NCc2ccccc2)c2ccc(OC)cc2)cc1	–	90	–
Clc1cc2c(cc1Cl)Oc1c(Cl)c(Cl)cc(Cl)c1O2	–	206	log10 vapour pressure (mmHg): -9.23
COc1cc(OC)c(OC)cc1C=O	–	114	–
Cc1cc(O)ccc1[N+](=O)[O-]	–	128	log10 Henry constant (atm·m³/mol): -7.79; ready biodegradability: not readily biodegradable; log10 BCF: 1.06

Compound	boiling point [°C]	melting point [°C]	also measured
CCOc1cccc(C=O)c1	246	–	–
CC(=S)Nc1ccccc1	–	77.5	–
CC1c2ccccc2-c2ccccc21	–	46.5	–
CN1[C@@H]2CC[C@H]1C[C@@H](O)C2	237	86.5	–
CCCCC(CC)COC(C)=O (stereo unspecified)	199	-80	log10 vapour pressure (mmHg): -0.638
C=CCc1cc(OC)c2c(c1OC)OCO2	294	29.5	–
Clc1cc(Cl)c2cc(Cl)c(Cl)c(Cl)c2c1	–	–	log10 Koa: 8.82; log10 vapour pressure (mmHg): -5.68
CCCCCCCCCCCCCCCCCBr	349	32	log10 vapour pressure (mmHg): -4.74
CCC#CCC	81	-103	–
O=C1c2ccccc2C(=O)c2c1ccc1ccccc21	–	170	ready biodegradability: not readily biodegradable; log10 BCF: 1.69; log10 biotransformation half-life (days): -0.84
O=S(=O)(c1ccc(O)cc1)c1ccc(O)cc1	–	240	ready biodegradability: not readily biodegradable
FC(Br)C(F)(F)F (stereo unspecified)	8.6	-80	log10 Henry constant (atm·m³/mol): -1.24
CCCCCCCCC(CCCCCCCC)C(=O)O	–	38.5	–
CN(C)CCCCN(C)C	168	–	–
CCCCCCCCOC(=O)CCCC	262	-42.3	–
O=C(O)c1c(Cl)ccc(Cl)c1O	–	–	log10 Koc (L/kg): 2.3
CC(C)(C)c1ccc(Cl)cc1	213	–	–
COc1ccc(OC)c(Cl)c1	–	–	ready biodegradability: not readily biodegradable
CC(C)(C)OC(=O)CC(=O)OC(C)(C)C	–	-6	–
C=C(C)C(=O)OCC(C)O (stereo unspecified)	–	–	ready biodegradability: readily biodegradable
O=C(C(Cl)Cl)N(CCO)Cc1ccc(Oc2ccc([N+](=O)[O-])cc2)cc1	–	136	–
CC(C)C=CC(C)C	–	–	log10 vapour pressure (mmHg): 1.64
Cc1nc(C)c(C)nc1C	190	85	–
C[NH+](C)CCC(c1ccc(Cl)cc1)c1ccccn1.O=C([O-])/C=C\C(=O)O (stereo unspecified)	–	132	–
CCC(O)C(C)O (stereo unspecified)	188	–	–

Compound	boiling point [°C]	melting point [°C]	also measured
CC(=O)[C@@]1(O)CC[C@H]2[C@@H]3CC[C@H]4C[C@@H](O)CC[C@]4(C)[C@H]3CC[C@@]21C	–	265	–
CCCCN(CCCC)c1ccccc1	275	-32.2	–
COc1nc(Cl)c(Cl)cc1Cl	–	–	log10 Koc (L/kg): 2.96
CC(=O)OCC(=O)O	–	67.5	–
CNC(=S)NCc1ccccc1	–	75	–
CCCCCCCCCCCCCCCCCCCCCCCCCCC	442	59.5	log10 biodegradation half-life (days): 2.15; log10 vapour pressure (mmHg): -6.55
CCCCCC[C@H](C)I	210	–	log10 vapour pressure (mmHg): 0.136
CC(O)COC(C)COC(C)CO (stereo unspecified)	–	–	ready biodegradability: not readily biodegradable
CC(C)(C)C(C)(C)Cl	–	136	–
O=Cc1ccc2ccccc2n1	–	71	–
O=C(O)[C@H]1O[C@@H](OCC(Cl)(Cl)Cl)[C@H](O)[C@@H](O)[C@@H]1O	–	142	–
O=C1CCCC(=O)O1	287	56.3	log10 vapour pressure (mmHg): -2.52
c1ccc2c(c1)-c1cccc3c1c-2cc1ccccc13	–	168	log10 Henry constant (atm·m³/mol): -6.18; log10 biodegradation half-life (days): 2.45; log10 vapour pressure (mmHg): -6.3
C#CCCCCCCCCC	196	-25	–
CN(C(=O)CN(CCO)CC(=O)N(C)C(C)(C)Cc1ccccc1)C(C)(C)Cc1ccccc1	–	104	–
COc1ccc(C=Cc2ccc(OC)cc2)cc1	–	214	–
O=CC1CCCCC1	159	–	–
CC(=O)CC(=O)Nc1ccccc1	–	86	log10 vapour pressure (mmHg): -4.28; ready biodegradability: readily biodegradable
FC(F)OC(F)F	6.35	-123	–
COc1ccc(C(=O)c2coc(S(N)(=O)=O)c2)cc1	–	181	–
Cc1cc(C(C)(C)c2ccc(O)c(C)c2)ccc1O	–	139	–
CCSc1nnc(C(C)(C)C)c(=O)n1N	–	95	log10 vapour pressure (mmHg): -5.12
O=C=Nc1ccccc1Cl	200	30.5	–
CCCCCCCCCCCCCCCCCO	333	53.8	ready biodegradability: readily biodegradable
CCOCCOc1ccccc1	230	–	–

Compound	boiling point [°C]	melting point [°C]	also measured
CC(=NO)C(C)=NO	–	246	–
N#CC(C#N)=C1c2cc([N+](=O)[O-])ccc2-c2c1cc([N+](=O)[O-])cc2[N+](=O)[O-]	–	267	–
CC(=O)CC(=O)C(=O)O	–	99.5	–
O=C1CN=C(c2ccccc2)c2cc([N+](=O)[O-])ccc2N1	–	225	–
Nc1ccc(C2CCCCC2)cc1	–	54.5	–
CC(C)CNC(=O)N1CCNC1=O	–	95.5	–
CC1CC(C)NC(C)C1 (stereo unspecified)	145	–	–
N#Cc1ccc(-c2ccc(C#N)cc2)cc1	–	238	–
NS(=O)(=O)c1cc2c(cc1Cl)NC(C1CC3C=CC1C3)NS2(=O)=O (stereo unspecified)	–	234	–
COC1CCC=CO1 (stereo unspecified)	118	16	log10 vapour pressure (mmHg): 1.04
COC1=CC=C2[C@H]3Cc4ccc(OC)c5c4[C@@]2(CCN3C)[C@H]1O5	–	193	–
N#CCCO	221	-46	log10 vapour pressure (mmHg): -1.1
O=C(C=Cc1ccccc1)OCC=Cc1ccccc1	–	44	–
CC(=O)Nc1ccc(Cl)cc1	333	179	–
C1CCNC1	86.5	-57.8	log10 Henry constant (atm·m³/mol): -5.62; log10 Koa: 4.07; log10 vapour pressure (mmHg): 1.8
Oc1c(Cl)cc(Cl)cc1Sc1cc(Cl)cc(Cl)c1O	–	188	–
Cc1cnc(C)o1	118	–	–
CCOc1cccc(F)c1	172	-27.5	–
COc1cc2c(c3oc(=O)c4c(c13)CCOC4=O)C1C=COC1O2 (stereo unspecified)	–	245	–
NCCCC1OCC2(CO1)COC(CCCN)OC2 (stereo unspecified)	–	–	ready biodegradability: not readily biodegradable
C1=CCCCC=C1	120	-110	–
C=CC(=O)O[C@@H]1C[C@H]2CC[C@]1(C)C2(C)C	–	97	–
O=[N+]([O-])c1c(Cl)cccc1Cl	–	72.5	–
CCOC(=O)CCC(C)CC (stereo unspecified)	180	–	–
CC(O)C1CCCCC1 (stereo unspecified)	189	–	–
